Test results as given in PubChem BioAssay AID2060609 (Molecular Pharmacology Branch, DTP, NCI, 2025).

Tested on: 855422-203-R-J1-PDC complex spheroids, viability
Experiment: Anticancer human tumor 855422-203-R-J1-PDC patient-derived bladder carcinoma cell line growth inhibition [CLK]
Settings: for IC50: curve of first compound; for viability, T/C: stronger effect = lower value
Summary of the method: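 Patient-derived tumor cells grown as complex spheroids with HUVEC endothelial cells and mesenchymal stem cells, treated with drug combinations. Concentrations descend in half-log steps from near clinical Cmax, or from 10 microM if Cmax unknown.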
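Further: spheroids exposed to drugs for seven days before readout.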
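Wherever viability, T/C is given: 100% = DMSO vehicle control wells.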

CC(C)CC(NC(=O)C(Cc1ccccc1)NC(=O)c1cnccn1)B(O)O (centres undefined) + CNC(=O)c1ccc(Nc2nc(OC3CCCC3)c3c(-c4ccc5nc(C)oc5c4)c[nH]c3n2)c(OC)c1
IC50 (second compound 0.0316 µM): < 0.949 nM
IC50 (second compound 0.1 µM): < 0.949 nM
IC50 (second compound 0.316 µM): < 0.949 nM
IC50 (second compound 1 µM): < 0.949 nM
IC50 (second compound 3.16 µM): < 0.949 nM
IC50 (second compound 10 µM): < 0.949 nM
viability, T/C (second compound 0.0316 µM, first compound 0.000949 µM): 4.13%
viability, T/C (second compound 0.0316 µM, first compound 0.003 µM): 0.22%
viability, T/C (second compound 0.0316 µM, first compound 0.00949 µM): 0.2%
viability, T/C (second compound 0.0316 µM, first compound 0.03 µM): 0.21%
viability, T/C (second compound 0.0316 µM, first compound 0.0949 µM): 0.17%
viability, T/C (second compound 0.0316 µM, first compound 0.3 µM): 0.18%
viability, T/C (second compound 0.1 µM, first compound 0.000949 µM): 2.95%
viability, T/C (second compound 0.1 µM, first compound 0.003 µM): 0.2%
viability, T/C (second compound 0.1 µM, first compound 0.00949 µM): 0.18%
viability, T/C (second compound 0.1 µM, first compound 0.03 µM): 0.17%
viability, T/C (second compound 0.1 µM, first compound 0.0949 µM): 0.17%
viability, T/C (second compound 0.1 µM, first compound 0.3 µM): 0.49%
viability, T/C (second compound 0.316 µM, first compound 0.000949 µM): 2.47%
viability, T/C (second compound 0.316 µM, first compound 0.003 µM): 0.17%
viability, T/C (second compound 0.316 µM, first compound 0.00949 µM): 0.13%
viability, T/C (second compound 0.316 µM, first compound 0.03 µM): 0.13%
viability, T/C (second compound 0.316 µM, first compound 0.0949 µM): 0.12%
viability, T/C (second compound 0.316 µM, first compound 0.3 µM): 0.54%
viability, T/C (second compound 1 µM, first compound 0.000949 µM): 1.78%
viability, T/C (second compound 1 µM, first compound 0.003 µM): 0.13%
viability, T/C (second compound 1 µM, first compound 0.00949 µM): 0.13%
viability, T/C (second compound 1 µM, first compound 0.03 µM): 0.1%
viability, T/C (second compound 1 µM, first compound 0.0949 µM): 0.14%
viability, T/C (second compound 1 µM, first compound 0.3 µM): 0.1%
viability, T/C (second compound 3.16 µM, first compound 0.000949 µM): 1.68%
viability, T/C (second compound 3.16 µM, first compound 0.003 µM): 0.13%
viability, T/C (second compound 3.16 µM, first compound 0.00949 µM): 0.65%
viability, T/C (second compound 3.16 µM, first compound 0.03 µM): 0.08%
viability, T/C (second compound 3.16 µM, first compound 0.0949 µM): 0.1%
viability, T/C (second compound 3.16 µM, first compound 0.3 µM): 0.11%
viability, T/C (second compound 10 µM, first compound 0.000949 µM): 1.83%
viability, T/C (second compound 10 µM, first compound 0.003 µM): 0.15%
viability, T/C (second compound 10 µM, first compound 0.00949 µM): 0.13%
viability, T/C (second compound 10 µM, first compound 0.03 µM): 0.12%
viability, T/C (second compound 10 µM, first compound 0.0949 µM): 0.28%
viability, T/C (second compound 10 µM, first compound 0.3 µM): 0.12%

O=C(c1cc(Cc2n[nH]c(=O)c3ccccc23)ccc1F)N1CCN(C(=O)C2CC2)CC1 + CNC(=O)c1ccc(Nc2nc(OC3CCCC3)c3c(-c4ccc5nc(C)oc5c4)c[nH]c3n2)c(OC)c1
IC50 (second compound 0.0316 µM): > 10000 nM
IC50 (second compound 0.1 µM): 4780 nM
IC50 (second compound 0.316 µM): < 31.6 nM
IC50 (second compound 1 µM): < 31.6 nM
IC50 (second compound 3.16 µM): < 31.6 nM
IC50 (second compound 10 µM): < 31.6 nM
viability, T/C (second compound 0.0316 µM, first compound 0.0316 µM): 117%
viability, T/C (second compound 0.0316 µM, first compound 0.1 µM): 100%
viability, T/C (second compound 0.0316 µM, first compound 0.316 µM): 111%
viability, T/C (second compound 0.0316 µM, first compound 1 µM): 98.1%
viability, T/C (second compound 0.0316 µM, first compound 3.16 µM): 112%
viability, T/C (second compound 0.0316 µM, first compound 10 µM): 82.5%
viability, T/C (second compound 0.1 µM, first compound 0.0316 µM): 58.6%
viability, T/C (second compound 0.1 µM, first compound 0.1 µM): 69.4%
viability, T/C (second compound 0.1 µM, first compound 0.316 µM): 63.6%
viability, T/C (second compound 0.1 µM, first compound 1 µM): 47.4%
viability, T/C (second compound 0.1 µM, first compound 3.16 µM): 57.2%
viability, T/C (second compound 0.1 µM, first compound 10 µM): 45.1%
viability, T/C (second compound 0.316 µM, first compound 0.0316 µM): 20.3%
viability, T/C (second compound 0.316 µM, first compound 0.1 µM): 21.5%
viability, T/C (second compound 0.316 µM, first compound 0.316 µM): 21.1%
viability, T/C (second compound 0.316 µM, first compound 1 µM): 23.7%
viability, T/C (second compound 0.316 µM, first compound 3.16 µM): 21.9%
viability, T/C (second compound 0.316 µM, first compound 10 µM): 23.8%
viability, T/C (second compound 1 µM, first compound 0.0316 µM): 24.4%
viability, T/C (second compound 1 µM, first compound 0.1 µM): 21.6%
viability, T/C (second compound 1 µM, first compound 0.316 µM): 21.1%
viability, T/C (second compound 1 µM, first compound 1 µM): 28.1%
viability, T/C (second compound 1 µM, first compound 3.16 µM): 22.1%
viability, T/C (second compound 1 µM, first compound 10 µM): 18.5%
viability, T/C (second compound 3.16 µM, first compound 0.0316 µM): 23.3%
viability, T/C (second compound 3.16 µM, first compound 0.1 µM): 22.3%
viability, T/C (second compound 3.16 µM, first compound 0.316 µM): 21.6%
viability, T/C (second compound 3.16 µM, first compound 1 µM): 19.9%
viability, T/C (second compound 3.16 µM, first compound 3.16 µM): 21.3%
viability, T/C (second compound 3.16 µM, first compound 10 µM): 23.4%
viability, T/C (second compound 10 µM, first compound 0.0316 µM): 18.5%
viability, T/C (second compound 10 µM, first compound 0.1 µM): 18%
viability, T/C (second compound 10 µM, first compound 0.316 µM): 17.9%
viability, T/C (second compound 10 µM, first compound 1 µM): 20%
viability, T/C (second compound 10 µM, first compound 3.16 µM): 19.9%
viability, T/C (second compound 10 µM, first compound 10 µM): 19.5%
